The record followed here is patent publication US20230278972A1, “SUBSTITUTED HALOALKYL SULFONANILIDE HERBICIDES” (FMC Corporation, priority 2020, published 2023).

What all share (type): in vivo
Experiment [1] concerns blackgrass (Alopecurus myosuroides). In words: Test A1 preemergence, blackgrass. In outline:
(§1)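 Both timings started from seed in a loam-sand blend. Preemergence pots got a directed soil application immediately; postemergence pots were sprayed when seedlings had one or two leaves and stood 2–10 cm. Each compound was prepared in a non-phytotoxic solvent plus surfactant.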

The test system of experiment [2] is corn (Zea mays). In words: Test A1 preemergence, corn. Summed up: (§2)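 Postemergence species (ragweed, Palmer pigweed, wild oat) were sprayed at one- to two-leaf stage, 2 to 10 cm tall. Corn was treated preemergence by directed soil spray. Both used a loam soil/sand blend and compounds in a non-phytotoxic solvent mixture with surfactant.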
The test system of experiment [3] is goosegrass (Eleusine indica). In words: Test A1 preemergence, goosegrass. Summed up:
as §1

The subject of experiment [4] is ragweed (common ragweed, Ambrosia artemisiifolia). The experiment is described as follows: Test A1 preemergence, ragweed. In outline:
as §1

Experiment [5] has as its system wheat (Triticum aestivum). The experiment is described as follows: Test A1 preemergence, wheat. Summed up: as §1
Experiment [6] has as its system goosegrass (Eleusine indica). In words: Test A1 postemergence, goosegrass. As to conditions: Postemergence. In outline: (§3)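 Pre: seeds in loam/sand blend, directed soil spray. Post: potted plants, same soil, 2–10 cm, 1–2 leaf stage. Chemicals in non-phytotoxic solvent + surfactant for both.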
Experiment [7] deals with Oat, Wild (wild oat, Avena fatua). In words: Test A1 postemergence, Oat, Wild. The settings on record: Postemergence. In outline:
as §2

Experiment [8] deals with Pigweed, Palmer (palmer amaranth, palmer pigweed, Amaranthus palmeri). In words: Test A1 postemergence, Pigweed, Palmer. The settings on record: Postemergence. In outline:
as §2

Experiment [9] deals with ragweed (common ragweed, Ambrosia artemisiifolia). The experiment is described as follows: Test A1 postemergence, ragweed. As to conditions: Postemergence. In outline: as §2
Experiment [10] deals with horseweed (Erigeron canadensis). The experiment is described as follows: Test A1 postemergence, horseweed. As to conditions: Postemergence. Summed up:
as §3

Setting [11] is: 31 g ai/ha, 0 to 100 scale (0 no effect, 100 complete control).
Where [12] appears, read: 125 g ai/ha, 0 to 100 scale, 0 no effect, 100 complete control.
The mark [13] stands for this setting: 31 g ai/ha, 0 to 100 scale (0 no effect, 100 complete control), 10 days.

For the compound `CCOC(=O)N(c1cc(C(=O)N2CCOCC2)c(C)cc1C)S(=O)(=O)C(F)(F)F` [Compound 363], the “Plant response rating, Blackgrass” value in [1] (setting [11]) is 50; in [1] (setting [12]) it was 90. Further, the “Plant response rating, Corn” value is 0 in experiment [2] (setting [11]) and 60 in experiment [2] (setting [12]). Moreover, the “Plant response rating, Goosegrass” value amounted to 100 in experiment [3] (setting [11]); 100 in [3] (setting [12]); 30 in experiment [6] (setting [13]); 90 in [6] (125 g ai/ha, 0 to 100 scale). Also, the “Plant response rating, Ragweed” value is given as 20 in experiment [4] (setting [11]); 80 in [4] (setting [12]); 60 in [9] (setting [13]); 70 in experiment [9] (125 g ai/ha, 0 to 100 scale). Also, the “Plant response rating, Wheat” value was determined as 40 in experiment [5] (setting [11]) and 90 in experiment [5] (setting [12]). Also, the “Plant response rating, Oat, Wild” value in [7] (setting [13]) is reported as 20; in experiment [7] (125 g ai/ha, 0 to 100 scale) it was 50. Besides, the “Plant response rating, Pigweed, Palmer” value in experiment [8] (setting [13]) was 0; in experiment [8] (125 g ai/ha, 0 to 100 scale), 10. The “Plant response rating, Horseweed” value amounted to 80 in experiment [10] (setting [13]) and 90 in experiment [10] (125 g ai/ha, 0 to 100 scale).

As to `Cc1cc(C)c(N(COC(=O)C(C)(C)C)S(=O)(=O)C(F)(F)F)cc1C(=O)N1CCC(c2ccccc2)CC1` [Compound 364], the “Plant response rating, Blackgrass” value in experiment [1] (setting [11]) and in experiment [1] (setting [12]) was 0 each time. Also, the “Plant response rating, Corn” value in experiment [2] (setting [11]) and in experiment [2] (setting [12]) was 0 each time. Further, the “Plant response rating, Goosegrass” value amounted to 0 in [3] (setting [11]); 0 in experiment [3] (setting [12]); 0 in experiment [6] (setting [13]); 0 in [6] (125 g ai/ha, 0 to 100 scale). Besides, the “Plant response rating, Ragweed” value is 0 in experiment [4] (setting [11]); 0 in [4] (setting [12]); 0 in [9] (setting [13]); 0 in [9] (125 g ai/ha, 0 to 100 scale). In addition, the “Plant response rating, Wheat” value in experiment [5] (setting [11]) and in experiment [5] (setting [12]) was 0 each time. Further, the “Plant response rating, Oat, Wild” value in experiment [7] (setting [13]) is 0; in [7] (125 g ai/ha, 0 to 100 scale), 0. Also, the “Plant response rating, Pigweed, Palmer” value is listed as 0 in experiment [8] (setting [13]) and 0 in [8] (125 g ai/ha, 0 to 100 scale). Further, the “Plant response rating, Horseweed” value in [10] (setting [13]) stood at 0; in [10] (125 g ai/ha, 0 to 100 scale), 0.

On to `CCOC(=O)N(c1cc(C(=O)N2CCC(c3ccccc3)CC2)c(C)cc1C)S(=O)(=O)C(F)(F)F` [Compound 365], for which the “Plant response rating, Blackgrass” value in [1] (setting [11]) and in [1] (setting [12]) was 0 in each case. Also, the “Plant response rating, Corn” value in experiment [2] (setting [11]) and in experiment [2] (setting [12]) was 0 throughout. Moreover, the “Plant response rating, Goosegrass” value was 10 in [3] (setting [11]); 90 in experiment [3] (setting [12]); 0 in [6] (setting [13]); 0 in experiment [6] (125 g ai/ha, 0 to 100 scale). Further, the “Plant response rating, Ragweed” value was determined as 0 in [4] (setting [11]); 20 in experiment [4] (setting [12]); 0 in experiment [9] (setting [13]); 30 in experiment [9] (125 g ai/ha, 0 to 100 scale). Moreover, the “Plant response rating, Wheat” value in experiment [5] (setting [11]) and in [5] (setting [12]) was 0 throughout. Also, the “Plant response rating, Oat, Wild” value is 0 in [7] (setting [13]) and 0 in [7] (125 g ai/ha, 0 to 100 scale). Besides, the “Plant response rating, Pigweed, Palmer” value in experiment [8] (setting [13]) was 0; in experiment [8] (125 g ai/ha, 0 to 100 scale) it was 0. The “Plant response rating, Horseweed” value in [10] (setting [13]) is 10; in experiment [10] (125 g ai/ha, 0 to 100 scale), 20.
